Laboratory results as given in US20250179033A1 (priority 2021, published 2025).
pEC50, pIC50: −log10 of the molar value. Like-named read-outs stand apart in the source and are kept apart here.

Assays:
[1] = Toxicity assay in TZM-bl cells; assay type: cell-based; conditions: human
Protocol: (§1) Compounds were serially diluted starting with 10 mM stocks in DMSO. DMSO concentrations were kept the same for all dilutions used within an assay (either 0.005% or 0.05% depending on highest concentration used). Duplicate 96-well plates were set up with 25 μL compound dilution, 25 μL virus, and 50 μL TZM-bl cells (2×10^5/mL) with DEAE-dextran and incubated at 37° C. 5% CO2 for 48 hr. All compounds were tested in triplicate, with single wells of efavirenz dilutions on each plate. All plates had 3-5 control wells without compound, 1 control well with no cells, and 1 control well with a highly toxic level of DMSO (9%). Inhibition assays were set up in clear tissue-culture treated plates with lysates moved to black assay plates or were set up in black tissue culture-treated plates. Medium was removed and the cells were lysed with Glo Lysis Buffer (Promega, Madison, Wisconsin, United States of America). Luciferase Assay System reagent (Promega, Madison, Wisconsin, United States of America) was added to cells and relative light units (RLU) was measured using an EnSpire instrument (PerkinElmer, Waltham, Massachusetts, United States of America). Toxicity assays were set up in clear tissue culture-treated plates. CellTiter-Blue Cell Viability Assay reagent (Promega) was added to the wells after 46 hr incubation, followed by 2 hr incubation. Sodium lauryl sulfate was added to 1.5% to stop the reaction and the plates were measured for fluorescence (560 nmEx/590 nmEm) using an EnSpire instrument (PerkinElmer, Waltham, Massachusetts, United States of America).

HIV-1 IIIB (wild-type) = test: HIV inhibition assay in TZM-bl cells, wild-type; assay type: cell-based; conditions: Human immunodeficiency virus 1, IIIB; for pIC50: Table 4, TZM-bl, read-out: IC50 (TZM, WT)
Protocol: (§2) Cells and virus culture: TZM-bl cells (42), HIV-1 IIIB virus (43-45) and HIV-1 IIIB (A17 variant) virus (46) as well are the NNRTI resistant mutants (strain NL4-3) (47) were obtained from the NIH HIV Reagent Program. H9 [derivative of HuT 78]cells (ATCC® HTB176™) were obtained from the American Type Culture Collection (Manassas, Virginia, United States of America). These viruses were grown in H9 cells to high titer, which was tested using a HIV p24 (high sensitivity) The detection kit used was sold under the tradename ALPHALISA® Detection Kit (PerkinElmer, Waltham, Massachusetts, United States of America). The viruses were concentrated using Lenti-X Concentrator (Takara Bio USA, Inc., Mountain View, California, United States of America). Infections of TZM-bl cells with either virus was facilitated with 15 μg/mL DEAE-dextran.
as §1

[2] = test system: HIV-1 IIIB A17 variant (Y181C/K103N); test: HIV inhibition assay in TZM-bl cells, A17 variant; assay type: cell-based; conditions: Human immunodeficiency virus 1, IIIB, TZM-bl; for pIC50: read-out: IC50 (TZM, A17), Table 4, TZM-bl
Protocol: as §2, §1

[3] = test system: primary mouse neuron cultures; test: Calcium imaging in primary neurons; assay type: cell-based; conditions: 1 μM
Protocol: The direct effects of the antiretroviral compounds were tested on primary rat and mouse neurons cultured on coverslips. Neurons at 14-18 days in vitro were loaded with the calcium indicator, Fluo-4 AM (2 μM, Molecular Probes, Inc., Eugene, Oregon, United States of America) in aCSF (aCSF: NaCl […], KCl 5.0 mM, CaCl2 2.3 mM, MgCl2 1.3 mM, glucose 20 mM). After 30 minutes of dye loading, the coverslip was transferred to a specialized stage for imaging. Cells were maintained in aCSF and time-lapse digital images were automatically captured on an Olympus IX71 microscope using software sold under the tradename METAMORPH® (Molecular Devices, San Jose, California, United States of America). Images were captured with a 40 msec exposure every 6 seconds for 6 minutes to assess acute effects and every minute for 60 minutes to assess delayed effects. Three pre-stimulation measurements were taken to establish basal levels of fluorescence at the beginning of each experiment. After collection of the third image, neurons the antiretroviral compound or vehicle diluted from the stock vial into aCSF was added to the neurons at the indicated final concentration. Baseline fluorescence was subtracted to correct for cell-to-cell differences in dye loading and intrinsic fluorescence. Changes in fluorescence at each time point were averaged across all cells from at least triplicate runs to provide an indication of the “typical” response. In some cases, individual cell response patterns are shown where the average masked important cell-specific profiles. All compounds were tested at 1 μM.

[4] = biological target: T1, HIV I reverse transcriptase (Human immunodeficiency virus type 1 group M subtype B, UniProt P03366); test: Reverse transcriptase inhibition assay (Roche kit, ELISA); assay type: biochemical
T1 construct: purchased Roche
Protocol: NNRTI assay methods: Inhibition of HIV I reverse transcriptase was assessed via a kit from Roche (Indianapolis-Marion County, Indiana, United States of America) using the manufacture's protocol (500 μM final reverse transcriptase reaction amount). […] DMSO concentrations were kept the same for all dilutions used within an assay (0.05%). Final compound concentrations ranged from 5000 nM-0.05 nM with 2-fold serial dilutions. 96-well plates were set up with 20 μL compound dilution, 20 μL reverse transcriptase, and 20 μL template/nucleotides and incubated at 37° C. 5% CO2 for 1 hr in a reaction plate. 50 μL of each reaction was then transferred to a streptavidin conjugated 96-well plate and an ELISA assay was run based on manufacture's protocol. All compounds were tested in sextuplicate, with single wells of efavirenz dilutions on each plate.

Row | SMILES | CC50 at 48 h ([1]; TZM-bl cells, Table 4, TZM-bl, read-out: CC50 (TZM)) | pIC50 (HIV-1 IIIB (wild-type)) | pIC50 [2] | acute spike frequency / acute signaling [3] | delayed spike frequency [3] | total calcium accumulation [3] | toxic effects by calcium imaging, overall [3] | pEC50 [4] | pIC50 [4] | CC50 at 48 h [1] | pEC50 (HIV-1 IIIB (wild-type); text b494, FIG. 2F, read-out: antiviral activity against wildtype, EC50) | pEC50 ([2]; read-out: activity against the A17 double mutant (Y181C/K103N), EC50)
1 | O=C1Nc2ccc(Cl)cc2[C@@](C#CC2CC2)(C(F)(F)F)O1 [Efavirenz, efavirenz] | > 100000 nM | 9.18 | 7.77 | trend towards a reduced acute signaling | increase | most dramatic increase | seemed to have some toxic effects | – | – | – | – | –
2 | Cc1cc(/C=C/C#N)cc(C)c1Nc1ccnc(Nc2ccc(C#N)cc2)n1 [Rilpivirine, rilpivirine, reference compound] | – | 9.45 | 9.09 | decrease | – | – | – | 6.42 | 5.93 | 112000 nM | 9.46 | 8.80
